In PubChem BioAssay (NCI):
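Method: 48-hour compound exposure of cells in 96-well plates, five concentrations, linear interpolation of endpoints. TGI denotes the concentration required for complete inhibition of growth.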

Tests used:
Assay in all cases: growth of human tumour cells (NCI), 48 h
UACC-257 melanoma = tested on: UACC-257 melanoma
RXF 393 renal = tested on: RXF 393 renal
UO-31 renal = tested on: UO-31 renal
NCI-H23 lung = tested on: NCI-H23 lung
HCT-116 colon = tested on: HCT-116 colon
CAKI-1 renal = tested on: CAKI-1 renal
HOP-62 NSCLC = tested on: HOP-62 NSCLC
NCI/ADR-RES ovarian = tested on: NCI/ADR-RES ovarian
786-0 renal = tested on: 786-0 renal
K-562 leukemia = tested on: K-562 leukemia
OVCAR-8 ovarian = tested on: OVCAR-8 ovarian
HCC-2998 colon = tested on: HCC-2998 colon
SK-MEL-2 melanoma = tested on: SK-MEL-2 melanoma
SF-268 CNS = tested on: SF-268 CNS
LOX IMVI melanoma = tested on: LOX IMVI melanoma
NCI-H226 lung = tested on: NCI-H226 lung
MOLT-4 leukemia = tested on: MOLT-4 leukemia
OVCAR-3 ovarian = tested on: OVCAR-3 ovarian
A549 NSCLC = tested on: A549 NSCLC

| SMILES | TGI (UACC-257 melanoma) [µM] | TGI (RXF 393 renal) [µM] | TGI (UO-31 renal) [µM] | TGI (NCI-H23 lung) [µM] | TGI (HCT-116 colon) [µM] | TGI (CAKI-1 renal) [µM] | TGI (HOP-62 NSCLC) [µM] | TGI (NCI/ADR-RES ovarian) [µM] | TGI (786-0 renal) [µM] | TGI (K-562 leukemia) [µM] | TGI (OVCAR-8 ovarian) [µM] | TGI (HCC-2998 colon) [µM] | TGI (SK-MEL-2 melanoma) [µM] | TGI (SF-268 CNS) [µM] | TGI (LOX IMVI melanoma) [µM] | TGI (NCI-H226 lung) [µM] | TGI (MOLT-4 leukemia) [µM] | TGI (OVCAR-3 ovarian) [µM] | TGI (A549 NSCLC) [µM] |
| --- | --- | --- | --- | --- | --- | --- | --- | --- | --- | --- | --- | --- | --- | --- | --- | --- | --- | --- | --- |
| Cc1cccc(NC(=S)Nc2ccc([N+](=O)[O-])cc2)n1 | > 100 | > 100 | > 100 | > 100 | > 100 | > 100 | > 100 | > 100 | > 100 | > 100 | > 100 | > 100 | > 100 | > 100 | > 100 | > 100 | > 100 | – | – |
| CC(C)(C)N1C(=O)c2ccccc2C1(O)C(F)(F)F (stereo not drawn) | > 100 | > 100 | > 100 | > 100 | > 100 | > 100 | > 100 | > 100 | > 100 | > 100 | > 100 | > 100 | > 100 | > 100 | > 100 | > 100 | – | > 100 | > 100 |
| Cc1nnc2sc(Cl)nn12 | – | – | 74 | 34.8 | 26.2 | 43.6 | 96 | > 100 | 86.8 | 72.9 | > 100 | 31.6 | 90.3 | – | 28.5 | 86.2 | 29.3 | 33.6 | 72.8 |
| CCN(CC)C(=S)SNc1ccc(S(N)(=O)=O)cc1 | > 100 | > 82.8 | > 100 | > 100 | > 100 | > 90.6 | > 100 | > 100 | > 71 | > 100 | 66 | > 100 | > 100 | > 100 | > 100 | > 100 | > 100 | – | > 100 |
| CC1C(=NO)C(C)C(c2ccccc2)N(N=O)C1c1ccccc1 (stereo not drawn) | 54.8 | 32.7 | 39.1 | 77.1 | 33.3 | – | 41.6 | 37 | 42.7 | > 100 | 41.5 | 33.8 | 39.5 | 35.7 | 29.3 | 55.2 | 44.6 | 65.7 | 40.7 |
| O=c1c(-c2c(-c3ccccc3)oc3ccc(Cl)cc3c2=O)c(-c2ccccc2)oc2ccc(Cl)cc12 | > 100 | > 100 | – | > 100 | > 100 | > 100 | > 61.4 | > 100 | > 100 | > 100 | > 100 | > 100 | > 100 | > 92.3 | > 100 | > 100 | > 100 | > 100 | > 100 |
| Cc1ccc(-c2cc(-c3ccc(Cl)cc3)nc(/N=C3\C(=O)N(CN4CCOCC4)c4ccccc43)n2)cc1 | 46.4 | 30.9 | – | 46 | 93.9 | 80 | > 100 | > 100 | 74.3 | 76.8 | 50.8 | 34 | 37.2 | > 100 | 50.5 | 89.9 | 35.8 | > 100 | 39.7 |
| CC1=[N+]([O-])C(C)(C)N(N=O)C1(C)C | > 10 | > 10 | > 10 | > 10 | > 10 | > 10 | > 10 | > 10 | > 10 | > 10 | > 10 | > 10 | > 10 | > 10 | – | > 10 | > 10 | > 10 | > 10 |
| COc1cc(C2SCC(=O)N2Cc2ccccc2)cc(OC)c1OC (stereo not drawn) | > 100 | – | > 100 | > 100 | > 100 | > 100 | – | > 100 | > 100 | > 100 | > 100 | > 100 | > 100 | > 100 | > 100 | > 100 | > 100 | > 100 | > 100 |
| c1ccc(CSc2ccccc2CN2CCN(Cc3ccccc3SCc3ccccc3)CCN(Cc3ccccc3SCc3ccccc3)CC2)cc1 | 2.94 | – | 7.66 | 2.67 | 2.03 | 11.3 | 3.82 | 6.85 | 3.01 | 7.18 | 2.67 | 2.39 | 2.83 | 10.3 | 2.75 | 3.46 | 6.26 | 1.82 | 10.1 |
| CCOC(=O)CC(=O)C(=O)NNC1=NCCN1 | > 100 | > 100 | > 100 | > 100 | > 100 | – | > 100 | > 100 | > 100 | > 100 | > 100 | > 100 | > 100 | > 100 | > 100 | > 100 | > 100 | > 100 | > 100 |
| COc1ccc(CC2c3cc(OC)c(OC)c(OC)c3CC[N+]2(C)C)cc1Oc1ccc(CC2c3cc4c(c(OC)c3CC[N+]2(C)C)OCO4)cc1 (stereo not drawn) | > 100 | – | > 100 | > 100 | > 100 | > 100 | – | > 100 | > 100 | > 100 | > 100 | > 100 | > 100 | > 100 | > 100 | > 100 | > 100 | – | > 100 |
| NC(=O)NC(=O)CCC(NS(=O)(=O)c1ccccc1)C(=O)NC(N)=O (stereo not drawn) | > 100 | – | > 100 | > 100 | > 100 | > 100 | > 100 | > 100 | > 100 | > 100 | > 100 | > 100 | > 100 | > 100 | > 100 | > 100 | > 100 | > 100 | > 100 |
